{"source": "paper PMC5407577", "about": "“Functional and genetic evidence that nucleoside transport is highly conserved in Leishmania species: Implications for pyrimidine-based chemotherapy” (International Journal for Parasitology: Drugs and Drug …, 2017)", "key": {"[1]": {"test_system": "L. mexicana promastigotes WT", "assay": "Alamar blue drug sensitivity assay, L. mexicana WT", "format": "cell-based, Leishmania mexicana", "conditions": "Leishmania mexicana, 72 h, WT promastigotes, 72 h + 48 h with dye; n ≥ 4; read-out: EC50", "protocol": "(§1) Sensitivity assays of Leishmania strains to various drugs using the viability dye resazurin (Alamar Blue) (Sigma-Aldrich) were performed using a protocol adapted from [Räz et al. (1997)], as described ([Al-Salabi et al., 2003], [Gould et al., 2008]). Pentamidine and diminazene were used as non-nucleoside controls and were obtained from Sigma-Aldrich, as were many purines, pyrimidines, and analogs, with the exceptions of 2-thiouridine and 4-thiouridine (TriLink BioTechnologies, San Diego, CA); 5′-deoxyuridine, and 2′-3′-dideoxyuridine (Carbosynth, Compton, UK); 5-fluoro-2′-deoxyuridine (Fluka); and 2-thiouracil (ICN Biomedicals, Cambridge, UK). A preliminary promastigote culture was diluted to a density of 2 × 10^6 cells/ml, of which 100 μl was added to wells of 96-well plates pre-loaded with 100 μl of doubling dilutions of test compounds, resulting in a final density of 1 × 10^6 cells/ml; the dilutions were over 2 rows of the plate (23 concentrations), with the last well containing only medium and serving as the no-drug control. The plates were incubated at 25 °C for 72 h before adding the Alamar Blue dye (20 μl of 12.5 mg resazurin sodium salt (Sigma) in 100 ml phosphate buffered saline (PBS; pH 7.4)). Since Leishmania parasites metabolize the Alamar Blue dye slower than trypanosomes ([Gould et al., 2008]), the cells were incubated with the dye for a further period of 48 h before measuring the fluorescence, using a FLUOstar Optima fluorimeter (BMG Labtech) at wavelengths of 544 nm for excitation and 620 nm for emission. […] Each experiment was performed independently at least 4 times; statistical significance was determined using Student's unpaired t-test."}, "[2]": {"test_system": "L. mexicana promastigotes", "assay": "metabolomic analysis of treated L. mexicana promastigotes", "format": "cell-based, Leishmania mexicana", "conditions": "100 μM, 8 h", "protocol": "(§2) Metabolomics analysis of the Leishmania promastigotes was undertaken in triplicate, exactly as described ([Ali et al., 2013a]). Briefly, cells were grown to log phase stage, resuspended at 2 × 10^6 cells/ml in 50 ml HOMEM/FBS and incubated 8 h with 100 μM of test compound (standard conditions) before transfer to a 50-ml centrifuge tube for instantaneous cooling (dry ice/ethanol bath, 4 °C) and centrifugation (2500 rpm, 10 min, 4 °C). The pellet was lysed with 200 μl of chloroform/methanol/water (1:3:1 v/v/v) containing mass spectrometry standards, and vigorous mixing (1 h, 4 °C); cell debris was removed by centrifugation and the metabolite extracts were stored in HPLC vials at −80 °C. Control samples were prepared in parallel and included untreated cells, unused growth medium, test compound solution and extraction solvent blanks. The analysis used a hydrophilic interaction liquid chromatography (HILIC-LC) fitted with a zwitterionic ZIC-pHILIC column (Merck Sequant), coupled to high resolution mass spectrometry (MS) using a Thermo Q-Exactive, and metabolomic data outputs were analyzed using the IDEOM application (http://mzmatch.sourceforge.net/ideom.php) with default parameters ([Creek et al., 2012]) exactly as described ([Ali et al., 2013a]). The lower limit of detection was set to 500 intensity units for all reported metabolites, in order to prevent spurious identification of low level signals.\n(§3) The mechanism of action of the fluorinated pyrimidines was investigated using a metabolomics approach, where promastigotes of L. mexicana and L. major were incubated for 8 h with 100 μM of either 5-FU, 5F-2′dUrd or 5F-Urd prior to metabolite extraction and mass spectrometric analysis as described ([Ali et al., 2013a], [Alkhaldi et al., 2015]). These conditions were chosen to allow for significant metabolite accumulation while not affecting cell viability or growth rate, which could broadly affect metabolite levels."}, "[3]": {"test_system": "Lmex5FURes", "format": "cell-based, Leishmania mexicana", "conditions": "0.5 μM radiolabel", "method_in_brief": "(§4)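 Mid-to-late log-phase parasites were washed and held at 10^8 cells ml^−1 in HEPES/bicarbonate buffer with glucose, pH 7.3, then incubated at ambient temperature with radiolabelled permeant, with or without unlabelled substrate or inhibitors. Uptake was stopped with ice-cold excess unlabelled permeant and oil centrifugation, then counted by scintillation; saturation, inhibition and time-course data fitted by regression, in triplicate.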"}, "[4]": {"molecular_target": "LmexUU1", "format": "cell-based, Leishmania mexicana", "conditions": "inhibition of [3H]-uracil uptake, 4 min", "method_in_brief": "as §4"}, "[5]": {"molecular_target": "LmexNT1", "format": "cell-based, Leishmania mexicana", "conditions": "inhibition of 0.25 μM [3H]-uridine uptake in the presence of 1 mM uracil", "method_in_brief": "as §4"}, "[6]": {"test_system": "L. major promastigotes WT", "assay": "Alamar blue drug sensitivity assay, L. major WT", "format": "cell-based, Leishmania major", "conditions": "Leishmania major, 72 h, WT promastigotes, 72 h + 48 h with dye; n ≥ 4; read-out: EC50", "protocol": "as §1"}, "[7]": {"test_system": "L. major promastigotes", "assay": "metabolomic analysis of treated L. major promastigotes", "format": "cell-based, Leishmania major", "conditions": "100 μM, 8 h", "protocol": "as §2, §3"}, "[8]": {"test_system": "Lmex5FURes", "assay": "microbe, parasite or virus in culture", "format": "cell-based, Leishmania mexicana", "protocol": "as §1"}, "[9]": {"test_system": "Lmex5F2′dURes", "assay": "microbe, parasite or virus in culture", "format": "cell-based, Leishmania mexicana", "protocol": "as §1"}, "[10]": {"test_system": "Lmaj5FURes", "assay": "microbe, parasite or virus in culture", "format": "cell-based, Leishmania major", "protocol": "as §1"}, "[11]": {"test_system": "Lmaj5F2′dURes", "assay": "microbe, parasite or virus in culture", "format": "cell-based, Leishmania major", "protocol": "as §1"}, "[12]": {"conditions": "n = 3, SEM, untreated: not detected (<500)"}}}
{"compound": "O=c1[nH]cc(F)c(=O)[nH]1", "note": "[5-FU, 5-Fluorouracil]", "values": [{"measurement": "EC50", "setting": "[1]", "result": "9.3 ± 0.6", "unit": "µM"}, {"measurement": "dCMP peak intensity", "setting": "[2]; [12]", "result": "5636 ± 3288", "unit": "arbitrary units"}, {"measurement": "dUrd peak intensity", "setting": "[2]; untreated: 304 ± 155", "result": "4166 ± 1560", "unit": "arbitrary units"}, {"measurement": "dADP peak intensity", "setting": "[2]; untreated: 1458", "result": "8948 ± 461^∗∗ arbitrary units"}, {"measurement": "dAdo peak intensity", "setting": "[2]; untreated: 2585 ± 811", "result": "6476 ± 2403", "unit": "arbitrary units"}, {"measurement": "dAMP peak intensity", "setting": "[2]; untreated: 10660 ± 2897", "result": "20366 ± 5358", "unit": "arbitrary units"}, {"measurement": "dCDP peak intensity", "setting": "[2]; untreated: not detected", "result": "4803 ± 433^∗∗ arbitrary units"}, {"measurement": "dCTP peak intensity", "setting": "[2]; untreated: not detected", "result": "2913 ± 1346", "unit": "arbitrary units"}, {"measurement": "uptake of radiolabel, lower than in WT control cells", "setting": "[3]", "result": 94.5, "unit": "%"}, {"measurement": "Ki", "setting": "[4]", "result": "56.3 ± 6.4", "unit": "µM"}, {"measurement": "Ki", "setting": "[5]", "result": "> 5000", "unit": "µM"}, {"measurement": "EC50", "setting": "[6]", "result": "8.5 ± 0.6", "unit": "µM"}, {"measurement": "dCMP peak intensity", "setting": "[7]; [12]", "result": 5130, "unit": "arbitrary units"}, {"measurement": "dUrd peak intensity", "setting": "[7]; untreated: 712 ± 105", "result": "5177 ± 1445", "unit": "arbitrary units"}, {"measurement": "dCTP peak intensity", "setting": "[7]; untreated: 995 ± 109", "result": "4541 ± 565", "unit": "arbitrary units"}, {"measurement": "dAdo peak intensity", "setting": "[7]; untreated: 2992 ± 173", "result": "6996 ± 2423", "unit": "arbitrary units"}, {"measurement": "dAMP peak intensity", "setting": "[7]; untreated: 6192 ± 910", "result": "19379 ± 3774", "unit": "arbitrary units"}, {"measurement": "dADP peak intensity", "setting": "[7]; untreated: not detected", "result": "not detected"}, {"measurement": "dCDP peak intensity", "setting": "[7]; untreated: not detected", "result": "6197 ± 1588", "unit": "arbitrary units"}, {"measurement": "EC50", "setting": "[8]; Leishmania mexicana", "result": "1370 ± 123", "unit": "µM"}, {"measurement": "RF (Resistance Factor = IC50 (resistant clone)/IC50 (WT))", "setting": "[8]; Lmex5FURes vs L. mexicana WT", "result": 147}, {"measurement": "EC50", "setting": "[9]; Leishmania mexicana", "result": "1770 ± 301", "unit": "µM"}, {"measurement": "RF (Resistance Factor = IC50 (resistant clone)/IC50 (WT))", "setting": "[9]; Lmex5F2′dURes vs L. mexicana WT", "result": 190}, {"measurement": "EC50", "setting": "[10]; Leishmania major", "result": "150 ± 5", "unit": "µM"}, {"measurement": "RF (Resistance Factor = IC50 (resistant clone)/IC50 (WT))", "setting": "[10]; Lmaj5FURes vs L. major WT", "result": 17}, {"measurement": "EC50", "setting": "[11]; Leishmania major", "result": "12 ± 1", "unit": "µM"}, {"measurement": "RF (Resistance Factor = IC50 (resistant clone)/IC50 (WT))", "setting": "[11]; Lmaj5F2′dURes vs L. major WT", "result": 1.3}]}
